According to patent EP3366695B1, “SAPOSIN-A DERIVED PEPTIDES AND USES THEREOF” (Children's Medical Center Corporation, priority 2009, dated 2021):

Experiments:
p53 [1] = assay: p53 expression in prostate fibroblasts, western blot; format: cell-based, human; settings: PC3 conditioned media in the presence of the inhibitor
Experimental: (§1) Methods of assaying the effects of mutant, fragment or variant Psap on Tsp-1 and p53 expression are described herein. Briefly, full-length, mutant, fragment and variant Psap are applied to the cell cultures prostate fibroblast. The conditioned media from PC3M-LN4 (LN4) and PC3 cells are used as controls, with PC3 as positive/stimulating control and LN4 as negative/inhibiting controls. After a period of […] (∼16 h), the cells are harvested, rinsed, and lysed. The lysates are analyzed for the level of Tsp-1 and p53 expression by western blot analyses, with β-actin as the internal lysate protein loading control. […]
(§2) For Western blotting, cells were harvested by mechanical scraping into 4°C PBS, cell pellets were obtained by removing PBS after centrifugation at 13,000rpm in a Heraeus Biofuge Fresco (Thermo Electron, Asheville, NC) for 2 min. Cells were then lysed in 50 mM Tris-HCl (pH 7.4), 150 mM NaCl, 1 % NP40, 1 mM sodium orthovanadate, 5 mM NaF, 20 mM β-glycerophosphate, and complete protease inhibitor (Roche, Indianapolis, IN) and protein concentrations were determined by the BioRad protein assay (BioRad, Hercules, CA). […] Protein volume intensity was determined using a Bio-Rad Chemi-Doc XRS system (Bio-Rad, CA).

Tsp-1 [2] = assay: Tsp-1 expression in prostate fibroblasts, western blot; format: cell-based, human; settings: PC3 conditioned media in the presence of the inhibitor
Experimental: as §1, §2

Tsp-1 [3] = assay: Tsp-1 expression in WI-38 lung fibroblasts, western blot; format: cell-based, human
Experimental: For Western blotting, cells were harvested by mechanical scraping into 4°C PBS, cell pellets were obtained by removing PBS after centrifugation at 13,000rpm in a Heraeus Biofuge Fresco (Thermo Electron, Asheville, NC) for 2 min. Cells were then lysed in 50 mM Tris-HCl (pH 7.4), 150 mM NaCl, 1 % NP40, 1 mM sodium orthovanadate, 5 mM NaF, 20 mM β-glycerophosphate, and complete protease inhibitor (Roche, Indianapolis, IN) and protein concentrations were determined by the BioRad protein assay (BioRad, Hercules, CA). Fifty micrograms of protein were loaded per well onto a 4-12 % pre-cast Bis-Tris gel (BioRad, Hercules, CA). The protein extracts were electrophoresed and transferred to an immobilon-P membrane (Millipore, Bedford, MA). The membranes were blocked in 5 % nonfat milk and incubated in primary antibody to Tsp-1 (Ab-11, LabVision, Fremont, CA), c-Myc and phospho-Myc (Cell Signaling Technology, Beverly, MA), Prosaposin (Santa Cruz Biotechnology, Santa Cruz, CA), β-actin (AbCam, Cambridge, UK). […] Protein volume intensity was determined using a Bio-Rad Chemi-Doc XRS system (Bio-Rad, CA). […]
Seven 20-amino acid (20-mer) peptides derived from saposin A were tested for ability to stimulate Tsp-1 expression in fibroblasts. […] WI-38 lung fibroblasts were treated with these peptides overnight and the Tsp-1 expression was analyzed by Western blot analysis. […]

MDM2 = MDM2 protein levels in WI-38 fibroblasts, western blot; format: cell-based, human; settings: cyclic 13-mer plus D4476
p53 [4] = assay: p53 expression in WI-38 fibroblasts, western blot; format: cell-based, human; settings: cyclic 13-mer plus D4476
thrombospondin-1 (Tsp-1) = assay: Tsp-1 expression in lungs and livers of treated mice, western blot; format: in vivo
Experimental: The 20-mer […] (SEQ. ID. No. 29) was tested in vivo in mice for their ability to induce Tsp-1 expression. Four mice were treated with the 20-amino acid peptide (residues 31-50 of saposin A) at a dose of 30mg/kg/day in combination with 200uL of conditioned media (CM) from the metastatic prostate cancer cell line PC3M-LN4. […] Another four mice were treated with CM from PC3M-LN4 alone, and a control group of four mice with treated with vehicle (PBS) alone. […] Mice were treated for 9 days after which they were sacrificed and the lungs and livers were harvested and lysed. Tissue lysates were then run on a 4-12% gradient bis-tris polyacrylamide gel and transferred to a nitrocellulose membrane for western blotting with antibodies specific for thrombospondin-1 (Tsp-1) and β-actin.

[5] = mice treated for 9 days, relative to control (vehicle PBS)
[6] = mice, 30mg/kg/day with 200uL PC3M-LN4 CM, 9 days, compared to PC3M-LN4 CM

COc1ccc2c(c1)c(C1=C(c3c[nH]c4ccccc34)C(=O)NC1=O)cn2CCCN(C)C [Gö 6983]
stimulation of p53 by PC3 CM (p53 [1]): abolished the stimulation of Tsp-1 and p53
stimulation of Tsp-1 by PC3 CM (Tsp-1 [2]): abolished the stimulation of Tsp-1 and p53

NC(=O)c1ccc(-c2nc(-c3ccc4c(c3)OCCO4)c(-c3ccccn3)[nH]2)cc1 [D4476]
Tsp-1 protein levels (Tsp-1 [3]; WI-38 fibroblasts, cyclic 13-mer plus D4476): reduction of Tsp-1 and p53
MDM2 protein levels (MDM2): increase in MDM2 protein levels
p53 protein levels (p53 [4]): reduction of Tsp-1 and p53

LEKTCDWLPKPNMSASCKEI [20-mer, 20-mer peptide, residues 31-50 of saposin A]
Tsp-1 expression in the liver (thrombospondin-1 (Tsp-1); [5]): stimulated Tsp-1 expression over control
Tsp-1 expression in the lung (thrombospondin-1 (Tsp-1); [5]): stimulated Tsp-1 expression over control
stimulated expression of Tsp-1 in the liver (thrombospondin-1 (Tsp-1); [6]): 4 fold
stimulated expression of Tsp-1 in the lung (thrombospondin-1 (Tsp-1); [6]): 6 fold
level of stimulation of Tsp-1 (thrombospondin-1 (Tsp-1); mice, 9 days, compared with positive control PC3 conditioned media): greater than that of the weakly metastatic pancreatic cancer cell line PC3
Tsp-1 expression (Tsp-1 [3]; WI-38 fibroblasts treated with peptide): able to stimulate Tsp-1 expression
